Assay results published in patent US20240051952A1, “HMOX1 INDUCERS” (Mitobridge Inc., priority 2019, published 2024).

The compounds below were run on Human Heme Oxygenase-1 (HMOX-1) (assay: ELISA assay to measure human heme oxygenase-1 (HMOX-1) in HepG2 lysate). Settings: fold change of human HMOX1 protein levels relative to DMSO control, HepG2.
Type: cell-based
Description: Example 143. ELISA Assay to Measure Human Heme Oxygenase-1 (HMOX-1) in HepG2 lysate
Reagents and Technical Notes:
ELISA capture antibody, standard HO-1, detection antibody and streptavidin HRP were supplied in the DuoSet IC Human total HO-1 ELISA from R&D systems (DYC3776-2). The substrate cocktail was KPL LumiGLO reserve Chemiluminescent Substrate (54-71-00). PBS was Corning Cellgro Cell Culture (21-040-CV). 10×PBS+0.05% tween20 (PBST) was from KPL.
All incubations of the plate were at room temperature (20° C.) in a closed drawer.
The ELISA plate was processed manually. All loadings were with a multichannel pipet. Plates were emptied by shaking into the sink and tapping onto paper towels to remove any remaining reagent. Plate washing was accomplished by loading all wells with PBS+0.05% tween20 (PBST) using a squirt bottle, shaking the PBST out and tapping the plate onto paper towels.
Preparation of the ELISA Plate: • 1. anti-HO-1 capture antibody was 1440 μg/ml after reconstitution in PBS. This antibody was diluted to 8 μg/ml in PBS and 50 μl per well was added to a 384 well greiner “lumitrac 200” plate. Incubated overnight. • 2. The plate was emptied and 100 μl PBS+1% BSA added to all wells. Incubated 90 minutes at room temperature.
Preparation of HepG2 Lysate: • 1. Cells were cultured in a 96-well tissue culture plate washed with PBS and then the plate frozen at −70° C. overnight. Plates were allowed to warm to ice temperature in an ice bucket. 20 μl of PBS, 0.5% Triton X100, 1 mM EDTA with 1×HALT™ protease inhibitors was added to each well and the plates incubated on ice for 1 hour. • 2. The lysates were frozen at −20° C. overnight.
Measurement of HMOX1 (“HO-1”) • 1. In a polypropylene 384 well plate, human HO-1(after reconstitution in PBS+0.5% Triton+1 mM EDTA) was serially diluted from 20 ng/ml 2-fold in PBS+0.5% triton-X100, 1 mM EDTA to make a 12-point standard curve including a zero point. • 2. In a polypropylene 96 well plate, HepG2 lysate was diluted 1 to 20 in Diluent #4 from DUOSET kit in which the assay standard is also diluted. • 3. The PBS+1% BSA was emptied from the ELISA plate and 30 μl of all samples and standards were added (duplicates recommended). The plate was incubated 90 minutes. • 4. Emptied plate and washed 4 times with PBST. • 5. Diluted HO-1 detection antibody to 200 ng/ml in PBS+1% BSA and added 30 μl to all wells. Incubated 90 minutes. • 6. Emptied plate and washed 4 times with PBST. • 7. Added 30 μl streptavidin HRP at 1/200 in PBS+1% BSA (stock streptavidin concentration not specified) to all wells. Incubated 30 minutes. • 8. Emptied plate and washed 4 times with PBST. • 9. Diluted Lumiglo reserve reagent two parts buffer to one part lumiglo substrate. Added 30 μl to all wells. Incubated 5 minutes. • 10. Measured chemiluminescence on spectramax M5 using 150 ms integration.
Table 1 below lists EC50 and fold changes of human HMOX1 protein levels relative to DMSO control upon treatment with representative compounds.

Compound | Maximum Fold induction
COCCOc1ccc2nc(Nc3nc4cc(C(=O)O)ccc4n3C)oc2c1 [Example 55, 2-((6-(2-methoxyethoxy)benzo[d]oxazol-2-yl)amino)-1-methyl-1H-benzo[d]imidazole-5-carboxylic acid] | 15
COCCOc1ccc2nc(Nc3nc4cc(C(=O)NCCO)ccc4n3C)oc2c1 [Example 57, N-(2-hydroxyethyl)-2-((6-(2-methoxyethoxy)benzo[d]oxazol-2-yl)amino)-1-methyl-1H-benzo[d]imidazole-5-carboxamide] | 34-40
COCCOc1ccc2nc(Nc3nc4cc(C(=O)NCCOCCO)ccc4n3C)oc2c1 [Example 58, N-(2-(2-hydroxyethoxy)ethyl)-2-((6-(2-methoxyethoxy)benzo[d]oxazol-2-yl)amino)-1-methyl-1H-benzo[d]imidazole-5-carboxamide] | 41-60
CC(C)c1ccc2nc(Nc3nc4cc(C(=O)O)ccc4n3C)oc2c1 [Example 59, 2-((6-isopropylbenzo[d]oxazol-2-yl)amino)-1-methyl-1H-benzo[d]imidazole-5-carboxylic acid] | 30
COCCNC(=O)c1ccc2c(c1)nc(Nc1nc3ccc(C(C)C)cc3o1)n2C [Example 60, 2-((6-isopropylbenzo[d]oxazol-2-yl)amino)-N-(2-methoxyethyl)-1-methyl-1H-benzo[d]imidazole-5-carboxamide] | 42-56
CC(C)c1ccc2nc(Nc3nc4cc(C(=O)NCCO)ccc4n3C)oc2c1 [Example 61, N-(2-hydroxyethyl)-2-((6-isopropylbenzo[d]oxazol-2-yl)amino)-1-methyl-1H-benzo[d]imidazole-5-carboxamide] | 60
Cn1c(Nc2nc3ccc(OC(F)F)cc3o2)nc2cc(C(=O)O)ccc21 [Example 62, 2-((6-(difluoromethoxy)benzo[d]oxazol-2-yl)amino)-1-methyl-1H-benzo[d]imidazole-5-carboxylic acid] | 15-24
COCCNC(=O)c1ccc2c(c1)nc(Nc1nc3ccc(OC(F)F)cc3o1)n2C [Example 63, 2-((6-(difluoromethoxy)benzo[d]oxazol-2-yl)amino)-N-(2-methoxyethyl)-1-methyl-1H-benzo[d]imidazole-5-carboxamide] | 11-15
Cn1c(Nc2nc3ccc(OC(F)F)cc3o2)nc2cc(C(=O)NCCO)ccc21 [Example 64, 2-((6-(difluoromethoxy)benzo[d]oxazol-2-yl)amino)-N-(2-hydroxyethyl)-1-methyl-1H-benzo[d]imidazole-5-carboxamide] | 11-18
COCCNC(=O)c1ccc2c(c1)nc(Nc1nc3cc(C)ccc3o1)n2C [Example 65, N-(2-methoxyethyl)-1-methyl-2-((5-methylbenzo[d]oxazol-2-yl)amino)-1H-benzo[d]imidazole-5-carboxamide] | 15-42
Cn1c(Nc2nc3cc(F)ccc3o2)nc2cc(C(=O)O)ccc21 [Example 66, 2-((5-fluorobenzo[d]oxazol-2-yl)amino)-1-methyl-1H-benzo[d]imidazole-5-carboxylic acid] | 19-22
COCCNC(=O)c1ccc2c(c1)nc(Nc1nc3cc(F)ccc3o1)n2C [Example 67, 2-((5-fluorobenzo[d]oxazol-2-yl)amino)-N-(2-methoxyethyl)-1-methyl-1H-benzo[d]imidazole-5-carboxamide] | 18-56
Cn1c(Nc2nc3ccc(F)cc3o2)nc2cc(C(=O)O)ccc21 [Example 68, 2-((6-fluorobenzo[d]oxazol-2-yl)amino)-1-methyl-1H-benzo[d]imidazole-5-carboxylic acid] | 16-21
COCCNC(=O)c1ccc2c(c1)nc(Nc1nc3ccc(F)cc3o1)n2C [Example 69, 2-((6-fluorobenzo[d]oxazol-2-yl)amino)-N-(2-methoxyethyl)-1-methyl-1H-benzo[d]imidazole-5-carboxamide] | 13-36
Cn1c(Nc2nc3ccc(OC(F)(F)F)cc3o2)nc2cc(C(=O)O)c(F)cc21 [Example 70, 6-fluoro-1-methyl-2-((6-(trifluoromethoxy)benzo[d]oxazol-2-yl)amino)-1H-benzo[d]imidazole-5-carboxylic acid] | 8-11
COCCNC(=O)c1cc2nc(Nc3nc4ccc(OC(F)(F)F)cc4o3)n(C)c2cc1F [Example 71, 6-fluoro-N-(2-methoxyethyl)-1-methyl-2-((6-(trifluoromethoxy)benzo[d]oxazol-2-yl)amino)-1H-benzo[d]imidazole-5-carboxamide] | 8-12
Cn1c(Nc2nc3ccccc3o2)nc2cc(C(=O)NCCOCCO)c(F)cc21 [Example 72, 2-(benzo[d]oxazol-2-ylamino)-6-fluoro-N-(2-(2-hydroxyethoxy)ethyl)-1-methyl-1H-benzo[d]imidazole-5-carboxamide] | 31-72
Cn1c(Nc2nc3cc(F)ccc3[nH]2)nc2cc(C(=O)O)ccc21 [Example 73, 2-((5-fluoro-1H-benzo[d]imidazol-2-yl)amino)-1-methyl-1H-benzo[d]imidazole-5-carboxylic acid] | 8-12
CN(C)CCn1c(Nc2nc3ccc(OC(F)(F)F)cc3o2)nc2cc(C(=O)O)ccc21 [Example 74, 1-(2-(dimethylamino)ethyl)-2-((6-(trifluoromethoxy)benzo[d]oxazol-2-yl)amino)-1H-benzo[d]imidazole-5-carboxylic acid] | 17-28
COCCn1c(Nc2nc3cc(OC(F)(F)F)ccc3[nH]2)nc2cc(C(=O)O)ccc21 [Example 75, 1-(2-methoxyethyl)-2-((5-(trifluoromethoxy)-1H-benzo[d]imidazol-2-yl)amino)-1H-benzo[d]imidazole-5-carboxylic acid] | 15-25
COCCNC(=O)c1ccc2c(c1)nc(Nc1nc3cc(OC(F)(F)F)ccc3[nH]1)n2CCOC [Example 76, N,1-bis(2-methoxyethyl)-2-((5-(trifluoromethoxy)-1H-benzo[d]imidazol-2-yl)amino)-1H-benzo[d]imidazole-5-carboxamide] | 18-20
COCCn1c(Nc2nc3ccc(OC(F)(F)F)cc3o2)nc2cc(C(=O)O)ccc21 [Example 77, 1-(2-methoxyethyl)-2-((6-(trifluoromethoxy)benzo[d]oxazol-2-yl)amino)-1H-benzo[d]imidazole-5-carboxylic acid] | 27-28
COCCNC(=O)c1ccc2c(c1)nc(Nc1nc3ccc(OC(F)(F)F)cc3o1)n2CCOC [Example 78, N,1-bis(2-methoxyethyl)-2-((6-(trifluoromethoxy)benzo[d]oxazol-2-yl)amino)-1H-benzo[d]imidazole-5-carboxamide] | 21-23
O=C(O)c1ccc2c(c1)nc(Nc1nc3ccc(OC(F)(F)F)cc3o1)n2C1CCOCC1 [Example 79, 1-(tetrahydro-2H-pyran-4-yl)-2-((6-(trifluoromethoxy)benzo[d]oxazol-2-yl)amino)-1H-benzo[d]imidazole-5-carboxylic acid] | 27-51
COCCNC(=O)c1ccc2c(c1)nc(Nc1nc3ccc(OC(F)(F)F)cc3o1)n2C1CCOCC1 [Example 80, N-(2-methoxyethyl)-1-(tetrahydro-2H-pyran-4-yl)-2-((6-(trifluoromethoxy)benzo[d]oxazol-2-yl)amino)-1H-benzo[d]imidazole-5-carboxamide] | 22-23

Same assay, conditions: human HMOX1 protein in HepG2 lysate, ELISA; * = average of 2 or more EC50 determinations; NA = Not Active

Compound | EC50
COCCOc1ccc2nc(Nc3nc4cc(C(=O)O)ccc4n3C)oc2c1 [Example 55, 2-((6-(2-methoxyethoxy)benzo[d]oxazol-2-yl)amino)-1-methyl-1H-benzo[d]imidazole-5-carboxylic acid] | 4.5 µM
